This note sets out measurements from patent US5773228A, “Activation-dependent protein expressed on the surface of activated platelets and antibodies thereto” (The General Hospital Corporation, priority 1995, dated 1998).

In the test the test system is platelets (TAPP-2 expression). As to the kind of experiment: Expression of TAPP-2 on platelets stimulated by different agonists (binding of 125I-MAb 12A7). Type of test: cell-based, rabbit. Conditions: compared to resting platelets, 10 minutes at room temperature.

Molecules are shown by their SMILES.

Protocol: Platelets were incubated with various agonists, with or without Ca^2+ or EDTA and then fixed by paraformaldehyde. The fixed platelets were washed and incubated with ^125 I-MAb 12A7 (50,000 cpm), with or without unlabeled MAb 12A7 (0.5 ug) added as an inhibitor to estimate nonspecific binding. After 45 min. the platelet samples were again washed, spun, and aspirated. The platelet pellet was counted to determine the amount of bound MAb 12A7.
Equilibrium saturation binding studies were conducted in a similar manner. Platelets activated by thrombin (0.15 U/ml) were incubated in duplicate with various amounts of ^125 I-MAb 12A7 (1,000,000 to 6,250 cpm) in a total volume of 200 μl. Each tube also contained a molar excess (>100-fold) of a control, anti-digoxin MAb, of the same isotype (Mudgett-Hunter et al., Mol. Immunol. 22:477-488 (1985)), which was added to inhibit nonspecific binding of ^125 I-MAb 12A7 to platelets via Fc receptors. To estimate nonspecific binding, a molar excess (>100-fold) of nonradioactive MAb 12A7 was added to one set of tubes. After incubation for 45 minutes at room temperature 2 ml of cold Tyrode's buffer was added, the tubes were centrifuged at 3000 ×g for 10 minutes and the unbound ^125 I-12A7 MAb was removed. The bound antibody was measured by gamma counting in Micro-Medics 4/600 counter. To study the binding of MAb 12A7 to resting platelets a similar procedure was performed except that the number of platelets had to be increased to 1.29×10^8 cells in a total incubation volume of 400 μl. The platelets were incubated with various amounts of MAb 12A7 (2,000,000 to 25,000 cpm) as above. The binding data was analyzed by the Ligand program of Munson and Rodbard, Anal. Biochem. 107:220-239 (1980)). […] The binding of 12A7 to platelets stimulated by different agonists was also studied. Platelets were isolated as described above. Platelets (5×10^6 cells/40 Kl) in modified Tyrode's (without divalent cations) were added to plastic tubes. […] After 45 minutes the platelet samples were again washed, spun, aspirated and gamma-counted.

Consider `CNc1ccc2oc(C[C@H]3O[C@@]4(CC[C@H]3C)O[C@H]([C@H](C)C(=O)c3ccc[nH]3)[C@H](C)C[C@H]4C)nc2c1C(=O)O` [A23187], for which the “TAPP-2 expression as indicated by the binding of 125I-MAb 12A7” value (“TAPP-2 expression as indicated” for short) (A23187 2 μM) is recorded as “notable increase”.

In the case of `Nc1ncnc2c1ncn2[C@@H]1O[C@H](COP(=O)(O)OP(=O)(O)O)[C@@H](O)[C@H]1O` [ADP], where the note is “ADP 10 μM”, the “TAPP-2 expression as indicated” value is reported as “notable increase”.

Consider `CNC[C@H](O)c1ccc(O)c(O)c1` [epinephrine], for which, for the setting “epinephrine 2 μM”, the “TAPP-2 expression as indicated” value is recorded as “little, if any, effect”.
